# Measurements as given in patent publication US5217956A, “Composition and treatment with biologically active peptides and certain anions” (priority 1991, dated 1993).
# No end group written: not given here.
# Key:
# E. cloacae = test: Killing of E. cloacae: viable organisms on plating after incubation in TSB; format: cell-based, Enterobacter cloacae; details: for CFU / EOP (% viable): 15 min at 37° C.
# Procedure: LEGEND: Organisms were incubated in a volume of 1 ml in either trypticase soy broth alone or containing substances noted for 15 min at 37° C. An aliquot was then diluted and plated to determine number of viable organisms.
# Pseudomonas aeruginosa = test: Minimal inhibitory concentration in trypticase soy broth versus Pseudomonas aeruginosa; format: cell-based
# Procedure: (§1) Approximately 1,000 bacteria were seeded into about 200 ul of trypticase soy broth. Either magainin 2 carboxy terminal amide, PGLa, or ALSKALSK ALSKALSKALSKALSK (Z-44) were added in increasing concentrations in the absence (Panel A) or presence (Panel B) of 50 mM NaF.
# Enterobacter cloacae = format: cell-based
# Procedure: as §1
compound,measurement,setting,value
"[F-].[Na+] [NaF, sodium fluoride]",CFU,E. cloacae; NaF 25 mM alone,10^7
same,EOP (% viable),E. cloacae; NaF 25 mM alone,100%
GIGKFLHSAKKFGKAFVGEIMNS-NH2 [MGN2],bacterial killing,"E. cloacae; 60 ug/ml MGN2 + 50 mM NaF, 10^7 E. cloacae in 1 ml TSB",all bacteria are killed
same,potentiation of effective killing power by addition of fluoride,E. cloacae; 60 ug/ml MGN2 with versus without NaF,over 1 million
same,CFU,E. cloacae; peptide 60 ug/ml + NaF 25 mM,0
same,EOP (% viable),E. cloacae; peptide 60 ug/ml + NaF 25 mM,0%
same,CFU,"E. cloacae; peptide 60 ug/ml, no NaF, 10^7 organisms in 1 ml TSB",about 10^6
same,CFU,"E. cloacae; peptide 60 ug/ml, no NaF, 10^7 organisms in 1 ml TSB, listed as MGN2 (NH2)",10^6
same,EOP (% viable),"E. cloacae; peptide 60 ug/ml, no NaF",90%
same,MINIMAL INHIBITORY CONCENTRATION,Pseudomonas aeruginosa; Panel A: absence of NaF,250 to 500 µg/mL
same,MINIMAL INHIBITORY CONCENTRATION,Pseudomonas aeruginosa; Panel B: +50 mM NaF,60 to 125 µg/mL
GMASKAGAIAGKIAKVALKAL-NH2 [PGLa],MINIMAL INHIBITORY CONCENTRATION,Enterobacter cloacae,> 250 µg/mL
